Measured values published in patent US20190062671A1, “PERFUME COMPOSITIONS” (Givaudan SA, priority 2016, published 2019).
Entries after “also recorded” stand apart in the source; their conditions may differ.

How the values were obtained:
[1] = system: Nrf2-dependent luciferase (ARE-element of the gene AKR1C2) in KeratinoSens cell line; assay: KeratinoSens assay, luciferase gene induction (OECD TG 442d); conditions: single chemicals; for Rating in the KeratinoSens assay (skin sensitization): threshold 1.5-fold induction
Protocol: The level of skin sensitization can reliably and quantitatively be measured experimentally by the KeratinoSens® method, which measures the induction of Nrf2-dependent luciferase in a skin cell line.
(§1) Compounds were tested using the commercial KeratinoSens® assay for skin sensitization. The KeratinoSens® test compares the potential skin sensitization risk of chemicals. […] KeratinoSens® cells were grown for 24 h in 96-well plates. The medium was then replaced with medium containing the test chemical and the solvent dimethylsulfoxide (DMSO) at a final level of 1% (v/v). Each compound was tested at 12 binary dilutions in the range from 0.98 to 2000 μM. Cells were incubated for 48 h with the test agents, and then luciferase activity and cytotoxicity were determined. This full procedure was repeated three times for each chemical. For each chemical in each repetition and at each concentration, the gene induction compared to DMSO controls and the wells with statistically significant induction over the threshold of 1.5 (i.e. 50% enhanced gene activity) were determined. Furthermore, the maximal fold-induction (Imax) and the EC1.5 value (concentration in μM for induction above the threshold) were calculated.
(§2) All compositions were tested in the concentration range from 0.2-400 ppm (parts per million in weights per volume).

[2] = target: test peptide Cor1C-420 (Ac-NKKCDLF) (Homo sapiens, UniProt Q9ULV4, I423F); assay: Modified direct peptide reactivity assay with LC-MS detection of peptide adducts; conditions: for Peptide reactivity: quantification, % of parent peptide modified: pH 7.5
Protocol: Alternatively, the sensitization potential can be quantified by measuring the reactivity of test chemicals with peptides.
It is based on the fact that allergenic chemicals must react with a peptide/protein in order to be immunogenic.
The samples were incubated for 24 h at 37° C. and analysed by LC-MS analysis on a VELOS PRO Mass spectrometer (Thermo […], San Jose, Calif., U.S.A.) operated in the ESI(+) mode.
Mass spectra were recorded from 200-2000 amu. A ZORBAX Eclipse XDB-C18 column, 2.1 mm ID, 150 mm, 5-Micron (Agilent Technologies) was used. The mobile phase consisted of H2O (A) and methanol (B) each containing 0.1% formic acid (v/v). The solvent flow was 250 μl/min and the following gradient (ratio A:B) was used: 0 min, 95:5; 2 min, 40:60; 10 min, 2:98; 12 min, 2:98. The integration was performed with Xcalibur Quan Browser™.
In order to detect formation of modified peptides, the specific ion trace for a new adduct with the mass of the test chemical added to the test peptide is extracted, and the peak of the peptide-adduct is integrated. Peptide adduct formation is a particular sensitive endpoint to determine reactive, and thus allergenic nature of compounds.

KeratinoSens cells = assay: Cytotoxicity / cellular viability in the KeratinoSens assay; assay type: cell-based; conditions: single chemicals, 48 h
Protocol: as §1, §2

[3] = 1 mM test chemical, 0.1 mM peptide, 24 h at 37° C.

Row | Imax (fold maximal gene induction) ([1]; 0.98 to 2000 μM, 48 h) [fold] | Concentration for 1.5-fold gene induction (EC 1.5 in μM) ([1]; 48 h, n.i. = no induction above threshold of 1.5 (negative rating)) | Peptide reactivity: adduct observation [2, 3] | Peptide reactivity: quantification, % of parent peptide modified [2, 3] | Peptide reactivity: adduct observation ([2]; 1 mM test chemical, 0.1 mM peptide, 24 h at 37° C., listed as II) | Peptide reactivity / adduct amount, fold lower as compared to Citral ([2]; relative to Citral) [fold] | Peptide reactivity: quantification, % of parent peptide modified ([2]; 24 h, 1 mM) | Compound | Rating in the KeratinoSens assay (skin sensitization) [1] | Concentration for 50% Cytotoxicity (KeratinoSens cells) [µM]
1 | 1.40 | n.i. | only traces were formed | observed, 0.3% of parent | Extremely low activity, | 27 | – | CC(C)=CCC(C)/C=C(\C)C=O (centres unmarked) [2,4,7-trimethyl-2,6,-octadienal] | non-sensitizing; also recorded: does not surpass the threshold for a positive rating up to the top dose | 317.8
2 | – | – | – | – | – | – | 8.1% of parent | CC(C)=CCCC(C)=CC=O [Citral, 3,7-dimethyl-2,6-octadienal, reference compound] | highly active | 95.5
